These results are taken from US10195156B2, “Compounds and compositions for intracellular delivery of agents” (ModernaTX, Inc., priority 2015, dated 2019).

The test system of series [1] is luciferase (Luc) mRNA expression. As to the kind of experiment: Expression of Luc induced by sample formulations, whole-body bioluminescence after intravenous administration. The format is in vivo. The note with it: mice, i.v., 0.5 mg/kg. In outline:
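Read-out is whole-body bioluminescence at 3, 6 and 24 h after a single intravenous dose of 0.5 mg/kg Luc mRNA in nanoparticle formulations. Groups of n=6 mice; PBS and standard MC3 formulation as references.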

The subject of series [2] is modified luciferase expression. As to the kind of experiment: Expression of Luc in different organs (liver, lung, spleen, femur) 6 hours after intravenous administration. The format is in vivo. The note with it: i.v., 0.5 mpk. As for the experimental part: The efficacy of the nanoparticle compositions presented in Tables 1, 1a, 17-1, 19-1, 20-1 and 21-1 was further evaluated by measuring the expression of modified luciferase in the liver, lung, spleen, and femur upon administration of a given composition. Formulations were administered intravenously to mice (n=3) at a dosage of 0.5 mpk and bioluminescence measured after 6 hours. The standard MC3 formulation and a PBS control were also tested.

Series [3] in a line: pKa of nanoparticle compositions. The format is physicochemical.
Another series deals with IP-10. As to the kind of experiment: Cytokine production induced by sample formulations: IP-10. The format is in vivo. The note with it: mice, i.v., 0.5 mpk, 6 hours; for IP-10: in pg/mL (unit assumed). The method in brief: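 Cytokine levels were quantified at 6 hours in mice given the nanoparticle compositions i.v. at 0.5 mpk. MC3 standard formulation and PBS served as comparators.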

Series [4] is described as follows: Particle size and polydispersity index of nanoparticle compositions (Zetasizer Nano ZS). The format is physicochemical. The method in brief:
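Values are size and PDI readings from a Zetasizer Nano ZS. Measurements are taken in 1×PBS; zeta potential, by contrast, uses 15 mM PBS.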

The test system of a further series is IL-6. As to the kind of experiment: Cytokine production induced by sample formulations: IL-6. The note with it: mice, i.v., 0.5 mpk, 6 hours, in pg/mL (unit assumed). The format is in vivo. An excerpt:
The introduction of foreign material into a mammalian body induces an innate immune response that promotes cytokine production. Such immune responses to, for example, nanoparticle compositions including therapeutic and/or prophylactic agents, are undesirable. The induction of certain cytokines is thus measured to evaluate the […] of nanoparticle compositions. The concentrations of various cytokines in mice upon intravenous administration of nanoparticle compositions presented in Tables 1, 1a, 17-1, 19-1, 20-1 and 21-1 at a dosage of 0.5 mpk was measured at 6 hours. The standard MC3 formulation and a PBS control were also tested.

The nature of series [5]: Encapsulation efficiency of RNA (QUANT-IT RIBOGREEN RNA assay). The format is physicochemical. In outline:
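RiboGreen fluorescence (ex ~480, em ~520 nm) measured after 15 min at 37 °C on samples at ~5 μg/mL in TE, pH 7.5, ± 2% Triton X-100 solution. After blank subtraction, free RNA is given as intact-sample signal divided by disrupted-sample signal.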

Setting [6] is: Table 1, rows without footnote mark.
[7] abbreviates: Table 20-1, rows without footnote mark.
The mark [8] stands for this setting: Table 1, * lipid:DSPC:Chol:PEG-DMG 50:10:38.5:1.5.

`CCCCCCCC/C=C\CCCCCCCCN(CCCCCCCC/C=C\CCCCCCCC)CCN(CCCCCCCC/C=C\CCCCCCCC)CCN1CCN(CCN(CCCCCCCCCCCC)CCCCCCCCCCCC)CC1` [Compound 33, N^1-(2-(4-(2-(Didodecylamino)ethyl)piperazin-1-yl)ethyl)-N^1,N^2,N^2-tri((Z)-octadec-9-en-1-yl)ethane-1,2-diamine]: the “Total Flux 3 hours” value in series [1] (Table 2, 3 hours) was determined as 1.64E+09. In series [1] (Table 2), the “Total Flux 6 hours” value was 4.71E+09 and the “Total Flux 24 hours” value stood at 1.54E+08. Also, the “Total Flux Femur” value in series [2] (Table 3, mice, femur) amounted to 1.18E+06. Further, in series [2] (Table 3, mice, liver), the “Total Flux Liver” value was 6.15E+08. Moreover, in series [2] (Table 3, mice), the “Total Flux Lung” value is recorded as 2.84E+06 and the “Total Flux Spleen” value is on record as 4.82E+06. Besides, in series [3] (setting [6]), the pKa came out at 6.06. Besides, the IP-10 in the series on IP-10 (Table 4) amounted to 1577. This compound also had a PDI in series [4] (setting [6]) of 0.138. Also, the “Size (nm)” value in series [4] (Table 1, rows without footnote mark (lipid:DOPE:cholesterol:PEG-DMG 40:20:38.5:1.5, Luc mRNA; MC3 standard formulation)) came to 79.7 nm. In the series with IL-6 (Table 4), this compound gave an IL-6 of 37. The “EE (%)” value in series [5] (setting [6]) is 98.1%.

Consider `CCCCCCCCCCCCN(CCO)CCN(CCCCCCCCCCCC)CCCCCC(=O)OCCCCCCC` [Compound 20-7, Heptyl 6-(dodecyl(2-(dodecyl(2-hydroxyethyl)amino)ethyl)amino)hexanoate], for which the “Total Flux 3 hours” value in series [1] (Table 20-2, 3 hours) turned out to be 1.22E+10. In series [1] (Table 20-2), the “Total Flux 6 hours” value was determined as 8.94E+09 and the “Total Flux 24 hours” value is reported as 2.65E+08. In series [1] (3 hours), the “total flux after 3 hours, rank within the named table (in words)” value is “highest after 3 hours”. Also, in series [2] (Table 20-3, mice, liver), the “Total Flux Liver” value is 1.00E+09. In series [2] (Table 20-3, mice), the “Total Flux Lung” value came out at 1.38E+07 and the “Total Flux Spleen” value is given as 4.58E+07. Further, in series [2] (mice, liver), the “total flux in the liver, rank within the named table (in words)” value is “highest”. This compound also gave a pKa in series [3] (setting [7]) of 6.66. Also, the IP-10 with IP-10 (Table 20-4, formula (20-I)) stood at 696.3. For the same compound, in series [4] (setting [7]), the PDI was 0.170 and the “Size (nm)” value was found to be 73.6 nm. The same compound registered an IL-6 with IL-6 (Table 20-4, formula (20-I)) of 24.5. For the same compound, in series [5] (setting [7]), the “EE (%)” value worked out at 92.4%.

In the case of `CCCCC/C=C\C/C=C\CCCCCCCCN(CCCCCCCC/C=C\C/C=C\CCCCC)CCN(CCCCCCCC/C=C\C/C=C\CCCCC)CCN1CCN(CCN(CCCCCCCCCCCC)CCCCCCCCCCCC)CC1` [Compound 34, N^1-(2-(4-(2-(Didodecylamino)ethyl)piperazin-1-yl)ethyl)-N^1,N^2,N^2-tri((9Z,12Z)-octadeca-9,12-dien-1-yl)ethane-1,2-diamine], the “Total Flux 3 hours” value in series [1] (Table 2, 3 hours) was found to be 7.77E+06. Besides, in series [1] (Table 2), the “Total Flux 6 hours” value was 1.88E+07 and the “Total Flux 24 hours” value was found to be 2.19E+06. Moreover, the “Total Flux Liver” value in series [2] (Table 3, mice, liver) is 2.79E+06. Also, in series [2] (Table 3, mice), the “Total Flux Lung” value was 5.63E+04 and the “Total Flux Spleen” value is 1.22E+06. In addition, the pKa in series [3] (setting [8]) is 5.74. In addition, the IP-10 in the series on IP-10 (Table 4) turned out to be 159. For the same compound, the “Size (nm)” value in series [4] (Table 1, * formulated with lipid:DSPC:Chol:PEG-DMG 50:10:38.5:1.5) amounted to 66.0 nm. This compound also registered a PDI in series [4] (setting [8]) of 0.077. The “particle size, rank within the named table (in words)” value in series [4] (comparison amongst compositions) is on record as “smallest particles”. Moreover, the IL-6 in the series with IL-6 (Table 4) came to 28. Besides, the “EE (%)” value in series [5] (setting [8]) amounted to 98.1%.

For `CCCCCCCCCCCCN(CCCCCCCCCCCC)CCN1CCN(C)CC1` [Compound 19-4, N-Dodecyl-N-(2-(4-methylpiperazin-1-yl)ethyl)dodecan-1-amine], the “Total Flux 3 hours” value in series [1] (Table 19-2, 3 hours) is 6.61E+05. In series [1] (Table 19-2), the “Total Flux 6 hours” value is listed as 4.75E+05 and the “Total Flux 24 hours” value stood at 3.44E+05. Besides, in series [2] (Table 19-3, mice, liver), the “Total Flux Liver” value was 1.46E+05. Moreover, in series [2] (Table 19-3, mice), the “Total Flux Lung” value is listed as 4.49E+04 and the “Total Flux Spleen” value was found to be 3.69E+04. Also, in series [3] (Table 19-1), the pKa was determined as 7.09. The IP-10 in the series on IP-10 (Table 19-4) stood at 430.9. Also, the “IP-10 induction, rank or comparison with IL-6 (in words)” value with IP-10 is “highest IP-10 expression”. In addition, in series [4] (Table 19-1), the PDI is listed as 0.071 and the “Size (nm)” value was 111.4 nm. In the series with IL-6 (Table 19-4), the IL-6 was 129.2. The “EE (%)” value in series [5] (Table 19-1) was 95.2%.

The pKa is the pH at which an ionisable group is half protonated. Low readings indicate a group that gives up its proton readily, high ones a group that holds its proton tightly.
